Assay results from publication PMC12655172, “Borylated 5-Membered Ring Iminosugars: Synthesis and Biological Evaluation for Glycosidase Inhibition and Anticancer Properties for Application in Boron Neutron Capture Therapy (BNCT)—Part 2” (Pharmaceuticals, 2025).

How the values were obtained:
Assay type in all cases: biochemical
α-D-glucosidase (yeast) = molecular target: T1, α-D-glucosidase (yeast) (Saccharomyces cerevisiae, UniProt P53341); experiment: Glycosidase inhibition (Table 2 panel); settings: read-out: inhibition % α-D-Glucosidase Yeast
T1 construct: purchased Sigma-Aldrich
T1 sequence (P53341 whole entry): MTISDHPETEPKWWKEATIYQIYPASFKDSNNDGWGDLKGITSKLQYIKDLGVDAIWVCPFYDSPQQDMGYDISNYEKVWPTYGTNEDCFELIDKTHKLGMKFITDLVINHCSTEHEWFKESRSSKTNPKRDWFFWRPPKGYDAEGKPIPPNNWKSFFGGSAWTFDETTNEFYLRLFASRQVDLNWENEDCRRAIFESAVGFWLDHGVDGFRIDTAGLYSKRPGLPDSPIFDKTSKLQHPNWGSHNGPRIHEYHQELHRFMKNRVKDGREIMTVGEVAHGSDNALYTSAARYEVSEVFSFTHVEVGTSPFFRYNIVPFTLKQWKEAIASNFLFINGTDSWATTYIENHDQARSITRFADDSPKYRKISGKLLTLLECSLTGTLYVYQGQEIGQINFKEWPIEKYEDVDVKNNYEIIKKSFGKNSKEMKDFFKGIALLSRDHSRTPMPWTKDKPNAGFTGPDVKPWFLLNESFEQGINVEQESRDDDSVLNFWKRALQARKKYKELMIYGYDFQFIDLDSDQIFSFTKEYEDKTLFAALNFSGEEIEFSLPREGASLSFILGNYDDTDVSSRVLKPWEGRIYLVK
Text: (§1) The enzymes α-D-glucosidase (yeast), β-D-glucosidases (almond, bovine liver), α-D-galactosidase (coffee beans), β-D-galactosidase (bovine liver), α-D-mannosidase (Jack bean), β-D-mannosidase (snail), α-L-rhamnosidase (P. decumbens), α-L-fucosidase (bovine kidney), trehalase (porcine kidney), β-D-glucuronidases (E. coli, bovine liver), amyloglucosidase (A. niger), para-nitrophenyl glycosides, and various disaccharides were purchased from Sigma-Aldrich Co (St. Louis, MO, USA).
(§2) Brush border membranes were prepared from the rat small intestine according to the method of Kessler et al., and were assayed at pH 6.8 for rat intestinal maltase using maltose. […] The reaction was stopped by heating at 100 °C for 3 min. After centrifugation (600 g; 10 min), the resulting reaction mixture was added to the Glucose CII-test Wako (Wako Pure Chemical Ind., Osaka, Japan). […] Other glycosidase activities were determined using an appropriate para-nitrophenyl glycoside as substrate at the optimum pH of each enzyme. The reaction mixture contained the substrate ([…]) and the appropriate amount of enzyme. The reaction was stopped by the addition of Na2CO3 (400 μM). The released para-nitrophenol was measured spectrometrically at 400 nm. All reactions were run in methanol.

[1] = system: T2, amyloglucosidase (A. niger); experiment: Glycosidase inhibition (Table 2 panel)
T2 construct: purchased Sigma-Aldrich
Text: as §1, §2

[2] = system: T3, β-D-glucuronidase (E. coli); experiment: Glycosidase inhibition (Table 2 panel)
T3 construct: purchased Sigma-Aldrich
Text: as §1, §2

[3] = system: N-acetyl-β-D-hexosaminidase (rat intestine); experiment: Glycosidase inhibition (Table 3 panel); settings: 1 mg/mL aqueous solution; run in water
Method in brief: (§3)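 Each glycosidase received […] para-nitrophenyl substrate in citrate/phosphate buffer at its optimum pH plus 1 mg/mL extract solution, at 27 °C. After stopping with glycine (pH 10.4) during the exponential phase, 405 nm absorbance was read; values are means of three replicates.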

[4] = system: α-D-glucosidase (rat intestine); experiment: Glycosidase inhibition (Table 3 panel); settings: 1 mg/mL aqueous solution; run in water
Method in brief: as §3

[5] = system: β-D-glucosidase (human lysosome); experiment: Glycosidase inhibition (Table 2 panel); settings: at 100 μM
[6] = system: β-D-galactosidase (E. coli); experiment: Glycosidase inhibition (Table 2 panel); settings: at 100 μM
β-D-mannosidase (snail) = experiment: Glycosidase inhibition (Table 2 panel)
Text: as §1
(§4) Brush border membranes were prepared from the rat small intestine according to the method of Kessler et al., and were assayed at pH 6.8 for rat intestinal maltase using maltose. For rat intestinal maltase, porcine kidney trehalase, and A. niger amyloglucosidase activities, the reaction mixture contained maltose ([…]) and the appropriate amount of enzyme, and the incubations were performed for 10–30 min at 37 °C. The reaction was stopped by heating at 100 °C for 3 min. After centrifugation (600 g; 10 min), the resulting reaction mixture was added to the Glucose CII-test Wako (Wako Pure Chemical Ind., Osaka, Japan). The absorbance at 505 nm was measured to determine the amount of the released D-glucose. Other glycosidase activities were determined using an appropriate para-nitrophenyl glycoside as substrate at the optimum pH of each enzyme. The reaction mixture contained the substrate ([…]) and the appropriate amount of enzyme. The reaction was stopped by the addition of Na2CO3 ([…]). The released para-nitrophenol was measured spectrometrically at 400 nm. All reactions were run in […].

[7] = system: T4, trehalase (porcine kidney); experiment: Glycosidase inhibition (Table 2 panel)
T4 construct: purchased Sigma-Aldrich; host or cells: porcine kidney
Text: as §1, §4

[8] = system: T5, α-D-mannosidase (Jack bean); experiment: Glycosidase inhibition (Table 2 panel)
T5 construct: purchased Sigma-Aldrich; host or cells: Jack bean
Text: as §1, §4

[9] = system: T6, α-D-galactosidase (coffee beans); experiment: Glycosidase inhibition (Table 2 panel)
T6 construct: purchased Sigma-Aldrich; host or cells: coffee beans
Text: as §1, §4

[10] = system: α-D-glucosidase (human lysosome); experiment: Glycosidase inhibition (Table 2 panel); settings: at 100 μM
Text: as §1, §4

[11] = molecular target: T7, β-D-glucosidase (bovine liver) (Bos taurus, UniProt F1MNT6); experiment: Glycosidase inhibition (Table 2 panel)
T7 sequence (F1MNT6 1-469): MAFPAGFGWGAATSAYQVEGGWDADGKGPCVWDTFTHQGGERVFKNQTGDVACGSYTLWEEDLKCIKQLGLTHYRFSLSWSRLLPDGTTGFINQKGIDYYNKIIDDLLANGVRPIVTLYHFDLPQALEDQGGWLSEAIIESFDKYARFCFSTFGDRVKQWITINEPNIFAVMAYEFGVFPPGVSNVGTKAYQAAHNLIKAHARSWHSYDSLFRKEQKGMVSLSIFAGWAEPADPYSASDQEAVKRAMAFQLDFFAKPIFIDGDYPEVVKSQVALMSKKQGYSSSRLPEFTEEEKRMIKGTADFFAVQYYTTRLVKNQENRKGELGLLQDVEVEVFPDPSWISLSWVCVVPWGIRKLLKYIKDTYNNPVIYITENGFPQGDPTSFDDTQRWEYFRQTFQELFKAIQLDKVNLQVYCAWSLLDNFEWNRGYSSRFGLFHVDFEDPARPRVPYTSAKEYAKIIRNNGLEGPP
Text: as §1, §4

β-D-glucosidase (almond) = experiment: Glycosidase inhibition (Table 2 panel)
Text: as §1, §4

[12] = molecular target: T8, β-D-galactosidase (bovine liver) (Bos taurus, UniProt F1MNT6); experiment: Glycosidase inhibition (Table 2 panel)
T8 sequence (F1MNT6 1-469): T7 sequence (F1MNT6 1-469)
Text: as §1, §4

[13] = system: β-D-glucuronidase (bovine liver); experiment: Glycosidase inhibition (Table 2 panel)
Text: as §1, §4

[14] = system: α-L-rhamnosidase (P. decumbens); experiment: Glycosidase inhibition (Table 2 panel)
Text: as §1, §4

α-D-glucosidase (rice) = α-D-glucosidase (rice) (Oryza sativa subsp. japonica, UniProt Q653V7); experiment: Glycosidase inhibition (Table 2 panel)
Sequence of α-D-glucosidase (rice) (Q653V7 34-885): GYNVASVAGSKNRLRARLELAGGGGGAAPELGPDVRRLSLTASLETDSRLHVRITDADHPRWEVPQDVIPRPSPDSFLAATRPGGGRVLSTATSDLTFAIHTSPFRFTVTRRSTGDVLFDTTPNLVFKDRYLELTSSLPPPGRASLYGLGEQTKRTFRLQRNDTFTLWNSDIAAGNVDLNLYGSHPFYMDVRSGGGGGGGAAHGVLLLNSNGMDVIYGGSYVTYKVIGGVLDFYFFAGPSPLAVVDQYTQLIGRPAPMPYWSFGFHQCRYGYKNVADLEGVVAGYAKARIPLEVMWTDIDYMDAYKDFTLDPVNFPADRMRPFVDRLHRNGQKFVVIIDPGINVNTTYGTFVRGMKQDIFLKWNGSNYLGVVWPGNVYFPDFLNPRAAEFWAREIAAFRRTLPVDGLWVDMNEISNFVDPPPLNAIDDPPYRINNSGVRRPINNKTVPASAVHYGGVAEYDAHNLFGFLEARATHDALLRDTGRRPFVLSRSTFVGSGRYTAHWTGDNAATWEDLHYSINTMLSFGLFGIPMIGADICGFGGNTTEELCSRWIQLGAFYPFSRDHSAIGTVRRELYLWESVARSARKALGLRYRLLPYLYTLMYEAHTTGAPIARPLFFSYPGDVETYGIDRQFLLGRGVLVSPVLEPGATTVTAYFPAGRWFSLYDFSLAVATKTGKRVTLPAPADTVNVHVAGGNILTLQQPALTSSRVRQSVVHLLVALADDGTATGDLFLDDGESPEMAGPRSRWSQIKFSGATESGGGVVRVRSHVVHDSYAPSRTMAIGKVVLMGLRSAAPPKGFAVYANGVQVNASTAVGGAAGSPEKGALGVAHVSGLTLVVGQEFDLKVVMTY
Text: as §1, §4

[15] = system: α-D-glucosidase (rat intestinal maltase); experiment: Glycosidase inhibition (Table 2 panel)
Text: as §1, §4

[16] = system: β-D-glucanase (T. Longibrachiatum); experiment: Glycosidase inhibition (Table 2 panel); settings: at 100 μM
[17] = listed as of the 1000 μM series

| Structure (SMILES) | inhibition at 100 µM (α-D-glucosidase (yeast)) [%] | inhibition % Amyloglucosidase A. niger ([1]; at 100 μM) | inhibition % β-D-Glucuronidase E. coli ([2]; at 100 μM) | Percentage inhibition N-Acetyl-β-D-Hexosaminidase Rat Intestine [3] [%] | Percentage inhibition α-D-Glucosidase Rat Intestine [4] [%] | inhibition % β-D-Glucosidase Human Lysosome [5] | inhibition % β-D-Galactosidase E. coli [6] | inhibition % β-D-Mannosidase Snail (β-D-mannosidase (snail); at 100 μM) | inhibition % Trehalase Porcine Kidney ([7]; at 100 μM) | inhibition % α-D-Mannosidase Jack Bean ([8]; at 100 μM) | inhibition % α-D-Galactosidase Coffee Beans ([9]; at 100 μM) | inhibition % α-D-Glucosidase Human Lysosome [10] | inhibition at 100 µM [11] [%] | inhibition % β-D-Glucosidase Almond (β-D-glucosidase (almond); at 100 μM) | inhibition at 100 µM [12] [%] | inhibition % β-D-Glucuronidase Bovine Liver ([13]; at 100 μM) | inhibition % α-L-Rhamnosidase P. decumbens ([14]; at 100 μM) | inhibition at 100 µM (α-D-glucosidase (rice)) [%] | inhibition % α-D-Glucosidase Rat Intestinal Maltase ([15]; at 100 μM) | inhibition % β-D-Glucanase T. Longibrachiatum [16] | further results |
| --- | --- | --- | --- | --- | --- | --- | --- | --- | --- | --- | --- | --- | --- | --- | --- | --- | --- | --- | --- | --- | --- |
| CC1(C)O[C@H]2O[C@H]3[C@@H]([C@H]2O1)N(Cc1cccc(B2OC(C)(C)C(C)(C)O2)c1)C[C@H]3O [meta 2, N-(3-Methylphenylboronic acid pinacol ester)-3,6-dideoxy-3,6-imino-1,2-O-isopropylidene-α-D-gulofuranose] | 8.8 | ^cNI ^d(1.4%) | ^cNI ^d(13.7%) | 11.5 | 16.8 | ^cNI ^d(0%) | ^cNI ^d(0%) | ^cNI ^d(8.4%) | ^cNI ^d(0%) | ^cNI ^d(7.5%) | ^cNI ^d(0%) | ^cNI ^d(3.9%) | 0 | ^cNI ^d(6.8%) | 2.2 | ^cNI ^d(1.4%) | ^cNI ^d(1.5%) | 0 | ^cNI ^d(5.8%) | ^cNI ^d(3.9%) | inhibition at 1000 µM (α-D-glucosidase (yeast)): 0%; inhibition % Amyloglucosidase A. niger ([1]; at 1000 μM): ^aNI ^b(0%); inhibition % β-D-Glucuronidase E. coli ([2]; at 1000 μM): ^aNI ^b(5.6%); inhibition % β-D-Mannosidase Snail (β-D-mannosidase (snail); at 1000 μM): ^aNI ^b(3.7%); inhibition % Trehalase Porcine Kidney ([7]; at 1000 μM): ^aNI ^b(5.8%); inhibition % α-D-Mannosidase Jack Bean ([8]; at 1000 μM): ^aNI ^b(0%); inhibition % α-D-Galactosidase Coffee Beans ([9]; at 1000 μM): ^aNI ^b(0%); inhibition at 1000 µM [11]: 32.7%; inhibition % β-D-Glucosidase Almond (β-D-glucosidase (almond); at 1000 μM): ^aNI ^b(12.6%); inhibition at 1000 µM ([12]; at 1000 μM): 41.8%; inhibition % β-D-Glucuronidase Bovine Liver ([13]; at 1000 μM): ^aNI ^b(10.7%); inhibition % α-L-Rhamnosidase P. decumbens ([14]; at 1000 μM): ^aNI ^b(0%); inhibition at 1000 µM (α-D-glucosidase (rice); at 1000 μM): 2.9%; inhibition % α-D-Glucosidase Rat Intestinal Maltase ([15]; at 1000 μM): ^aNI ^b(12.4%) |
| OC[C@H](O)[C@@H]1[C@H](O)[C@H](O)CN1Cc1cccc(B(O)O)c1 [meta 4, N-(3-Methylphenylboronic acid)-1,4-dideoxy-1,4-imino-L-gulitol] | 8.1 | ^cNI ^d(6.6%) | ^cNI ^d(3.5%) | −2.2 | 41.1 | ^cNI ^d(13.6%) | ^cNI ^d(4.9%) | ^cNI ^d(0%) | ^cNI ^d(0.8%) | ^cNI ^d(0%) | ^cNI ^d(1.1%) | ^cNI ^d(7.2%) | 0 | ^cNI ^d(0.6%) | 24.6 | ^cNI ^d(0%) | ^cNI ^d(8.3%) | 8 | ^cNI ^d(22.8%) | ^cNI ^d(1.2%) | inhibition at 1000 µM (α-D-glucosidase (yeast)): 4.9%; inhibition % Amyloglucosidase A. niger ([1]; at 1000 μM): ^aNI ^b(3.6%); inhibition % β-D-Glucuronidase E. coli ([2]; at 1000 μM): ^aNI ^b(20.6%); inhibition % β-D-Mannosidase Snail (β-D-mannosidase (snail); at 1000 μM): ^aNI ^b(0%); inhibition % Trehalase Porcine Kidney ([7]; at 1000 μM): ^aNI ^b(3.4%); inhibition % α-D-Mannosidase Jack Bean ([8]; at 1000 μM): ^aNI ^b(0%); inhibition % α-D-Galactosidase Coffee Beans ([9]; at 1000 μM): ^aNI ^b(3.7%); inhibition at 1000 µM [11]: 37.9%; inhibition % β-D-Glucosidase Almond (β-D-glucosidase (almond); at 1000 μM): ^aNI ^b(43%); inhibition % β-D-Glucuronidase Bovine Liver ([13]; at 1000 μM): ^aNI ^b(14.7%); IC50 (α-D-glucosidase (rice); [17]): 106 µM; IC50 [15, 17]: 588 µM |
| CC1(C)O[C@H]2O[C@H]3[C@@H]([C@H]2O1)N(Cc1cccc(B(O)O)c1)C[C@H]3O [meta 5, N-(3-Methylphenylboronic acid)-3,6-dideoxy-3,6-imino-1,2-O-isopropylidene-α-D-glucofuranose] | 7.8 | ^cNI ^d(0%) | ^cNI ^d(4.1%) | 5 | 11.6 | ^cNI ^d(0%) | ^cNI ^d(0%) | ^cNI ^d(2.3%) | ^cNI ^d(0%) | ^cNI ^d(6.3%) | ^cNI ^d(1.5%) | ^cNI ^d(0.3%) | 23 | ^cNI ^d(0%) | 0 | ^cNI ^d(2.9%) | ^cNI ^d(0.6%) | 0 | ^cNI ^d(0%) | ^cNI ^d(0%) | – |
| CC1(C)O[C@H]2O[C@H]3[C@@H]([C@H]2O1)N(Cc1cccc(O)c1)C[C@H]3O [meta 6] | 0 | ^cNI ^d(4.8%) | ^cNI ^d(0%) | −0.7 | 4.8 | ^cNI ^d(0%) | ^cNI ^d(0.8%) | ^cNI ^d(0.6%) | ^cNI ^d(0%) | ^cNI ^d(9.5%) | ^cNI ^d(0%) | ^cNI ^d(3.3%) | 15.8 | ^cNI ^d(6.3%) | 15.5 | ^cNI ^d(1.6%) | ^cNI ^d(6.5%) | 0 | ^cNI ^d(4.7%) | ^cNI ^d(3.1%) | – |
